Measured values reported in patent US20100267561A1, “HERBICIDAL PYRIDAZINONE DERIVATIVES” (priority 2007, published 2010).

Experiments:
Format in all cases: in vivo
[1] = system: large crabgrass (Digitaria sanguinalis); assay: Test B pre-/postemergence plant response; conditions: for Crabgrass, Large plant response rating: 8 g ai/ha
In short: (§1)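 Visual scoring from 0 (no effect) to 100 (complete control) against untreated controls was done 13 to 15 days after greenhouse treatment. Chemicals were formulated in a surfactant-containing non-phytotoxic solvent and applied to soil preemergence or to 1- to 4-leaf (2-18 cm) plants postemergence.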

[2] = system: Italian ryegrass (Lolium multiflorum); assay: Test B pre-/postemergence plant response; conditions: for Ryegrass, Italian plant response rating: 8 g ai/ha
In short: as §1

[3] = system: catchweed bedstraw (Galium aparine); assay: Test B pre-/postemergence plant response; conditions: Preemergence
In short: as §1

[4] = system: goosegrass (Eleusine indica); assay: Test B pre-/postemergence plant response; conditions: for Goosegrass plant response rating: 8 g ai/ha
In short: as §1

[5] = system: giant foxtail (Setaria faberii); assay: Test B pre-/postemergence plant response; conditions: for Foxtail, Giant plant response rating: 8 g ai/ha
In short: as §1

[6] = system: lambsquarters (Chenopodium album); assay: Test B pre-/postemergence plant response; conditions: for Lambsquarters plant response rating: 8 g ai/ha
In short: as §1

kochia (Kochia scoparia) = assay: Test B pre-/postemergence plant response; conditions: for Kochia plant response rating: 8 g ai/ha
In short: as §1

[7] = system: bermudagrass (Cynodon dactylon); assay: Test B pre-/postemergence plant response; conditions: for Bermudagrass plant response rating: 8 g ai/ha
In short: as §1

[8] = system: velvetleaf (Abutilon theophrasti); assay: Test B pre-/postemergence plant response; conditions: for Velvetleaf plant response rating: 8 g ai/ha
In short: as §1

soybean (Glycine max) = assay: Test B pre-/postemergence plant response; conditions: for Soybean plant response rating: 8 g ai/ha
In short: as §1

[9] = system: morningglory (Ipomoea coccinea); assay: Test B pre-/postemergence plant response; conditions: for Morningglory plant response rating: 8 g ai/ha
In short: as §1

[10] = system: pigweed (Amaranthus retroflexus); assay: Test B pre-/postemergence plant response; conditions: for Pigweed plant response rating: 8 g ai/ha
In short: as §1

[11] = system: johnsongrass (Sorghum halepense); assay: Test B pre-/postemergence plant response; conditions: for Johnsongrass plant response rating: 8 g ai/ha
In short: as §1

rice (Oryza sativa) = assay: Test B flooded paddy test plant response
In short: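 Paddy-water application to 2-leaf plants in pots held under 3 cm of flooding; response is a 0–100 visual control rating against controls after 13 to 15 days, and a dash marks a missing result.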

[12] = Postemergence, 16 g ai/ha, scale 0 to 100
[13] = Postemergence, 31 g ai/ha, scale 0 to 100, 0 no effect, 100 complete control
[14] = Postemergence, 62 g ai/ha, scale 0 to 100, 0 no effect, 100 complete control
[15] = Preemergence, 16 g ai/ha, scale 0 to 100 (0 no effect, 100 complete control)
[16] = Preemergence, 31 g ai/ha, 0 to 100 scale, 0 no effect, 100 complete control
[17] = Preemergence, 62 g ai/ha, scale 0 to 100

Cc1cc(-c2ccc(Cl)cc2)nn1-c1c(OC(=O)CC(C)C)cnn(C)c1=O [Compound 37]
95: Plant response rating, Johnsongrass [11, 13]
45: Ryegrass, Italian plant response rating ([2]; Preemergence, scale 0 to 100)
80: Bermudagrass plant response rating ([7]; postemergence, 0-100 scale) | Plant response rating, Johnsongrass [11, 16] | Plant response rating, Johnsongrass [11, 17] | Plant response rating, Rice (rice (Oryza sativa); Flood (flooded paddy test), 125 g ai/ha, scale 0 to 100, 0 no effect, 100 complete control)
0: Plant response rating, Galium ([3]; 16 g ai/ha, scale 0 to 100 (0 no effect, 100 complete control)) | Plant response rating, Galium ([3]; 31 g ai/ha, 0 to 100 scale, 0 no effect, 100 complete control) | Plant response rating, Galium ([3]; 62 g ai/ha, scale 0 to 100) | Galium plant response rating ([3]; 8 g ai/ha, scale 0 to 100) | Lambsquarters plant response rating ([6]; postemergence, 0-100 scale) | Plant response rating, Lambsquarters [6, 12] | Plant response rating, Lambsquarters [6, 13] | Plant response rating, Lambsquarters [6, 14] | Plant response rating, Lambsquarters [6, 15] | Plant response rating, Lambsquarters [6, 16] | Plant response rating, Lambsquarters [6, 17] | Lambsquarters plant response rating ([6]; Preemergence, scale 0 to 100) | Kochia plant response rating (kochia (Kochia scoparia); postemergence, 0-100 scale) | Plant response rating, Kochia (kochia (Kochia scoparia); [12]) | Plant response rating, Kochia (kochia (Kochia scoparia); [13]) | Plant response rating, Kochia (kochia (Kochia scoparia); [14]) | Plant response rating, Kochia (kochia (Kochia scoparia); [15]) | Plant response rating, Kochia (kochia (Kochia scoparia); [16]) | Plant response rating, Kochia (kochia (Kochia scoparia); [17]) | Kochia plant response rating (kochia (Kochia scoparia); Preemergence, scale 0 to 100) | Velvetleaf plant response rating ([8]; postemergence, 0-100 scale) | Plant response rating, Velvetleaf [8, 12] | Plant response rating, Velvetleaf [8, 14] | Plant response rating, Velvetleaf [8, 15] | Plant response rating, Velvetleaf [8, 16] | Plant response rating, Velvetleaf [8, 17] | Velvetleaf plant response rating ([8]; Preemergence, scale 0 to 100) | Soybean plant response rating (soybean (Glycine max); postemergence, 0-100 scale) | Plant response rating, Soybean (soybean (Glycine max); [12]) | Plant response rating, Soybean (soybean (Glycine max); [14]) | Plant response rating, Soybean (soybean (Glycine max); [15]) | Plant response rating, Soybean (soybean (Glycine max); [16]) | Plant response rating, Soybean (soybean (Glycine max); [17]) | Soybean plant response rating (soybean (Glycine max); Preemergence, scale 0 to 100) | Morningglory plant response rating ([9]; postemergence, 0-100 scale) | Plant response rating, Morningglory [9, 12] | Plant response rating, Morningglory [9, 13] | Plant response rating, Morningglory [9, 14] | Plant response rating, Morningglory [9, 15] | Plant response rating, Morningglory [9, 16] | Plant response rating, Morningglory [9, 17] | Morningglory plant response rating ([9]; Preemergence, scale 0 to 100) | Pigweed plant response rating ([10]; postemergence, 0-100 scale) | Plant response rating, Pigweed [10, 12] | Plant response rating, Pigweed [10, 13] | Plant response rating, Pigweed [10, 14] | Plant response rating, Pigweed [10, 15] | Plant response rating, Pigweed [10, 16] | Plant response rating, Pigweed [10, 17] | Pigweed plant response rating ([10]; Preemergence, scale 0 to 100) | Johnsongrass plant response rating ([11]; postemergence, 0-100 scale) | Plant response rating, Rice (rice (Oryza sativa); Flood, 31 g ai/ha, scale 0 to 100)
85: Plant response rating, Crabgrass, Large [1, 13] | Plant response rating, Foxtail, Giant [5, 13] | Plant response rating, Bermudagrass [7, 12]
90: Plant response rating, Ryegrass, Italian [2, 12] | Plant response rating, Ryegrass, Italian [2, 15] | Plant response rating, Goosegrass [4, 15] | Bermudagrass plant response rating ([7]; Preemergence, scale 0 to 100 (0 no effect, 100 complete control)) | Plant response rating, Bermudagrass [7, 15] | Plant response rating, Rice (rice (Oryza sativa); Flood (flooded paddy test), 250 g ai/ha, scale 0 to 100, 0 no effect, 100 complete control)
70: Crabgrass, Large plant response rating ([1]; postemergence, 0-100 scale) | Plant response rating, Crabgrass, Large [1, 12] | Crabgrass, Large plant response rating ([1]; Preemergence, scale 0 to 100) | Plant response rating, Foxtail, Giant [5, 12] | Plant response rating, Rice (rice (Oryza sativa); Flood (flooded paddy test), 62 g ai/ha, scale 0 to 100, 0 no effect, 100 complete control)
60: Ryegrass, Italian plant response rating ([2]; postemergence, 0-100 scale)
55: Plant response rating, Johnsongrass [11, 12]
100: Plant response rating, Crabgrass, Large [1, 14] | Plant response rating, Crabgrass, Large [1, 16] | Plant response rating, Crabgrass, Large [1, 17] | Plant response rating, Ryegrass, Italian [2, 14] | Plant response rating, Ryegrass, Italian [2, 17] | Goosegrass plant response rating ([4]; postemergence, 0-100 scale) | Plant response rating, Goosegrass [4, 12] | Plant response rating, Goosegrass [4, 13] | Plant response rating, Goosegrass [4, 14] | Plant response rating, Goosegrass [4, 17] | Plant response rating, Foxtail, Giant [5, 14] | Plant response rating, Foxtail, Giant [5, 15] | Plant response rating, Foxtail, Giant [5, 16] | Plant response rating, Foxtail, Giant [5, 17] | Foxtail, Giant plant response rating ([5]; Preemergence, scale 0 to 100) | Plant response rating, Bermudagrass [7, 13] | Plant response rating, Bermudagrass [7, 14] | Plant response rating, Bermudagrass [7, 16] | Plant response rating, Bermudagrass [7, 17] | Plant response rating, Johnsongrass [11, 14]
30: Foxtail, Giant plant response rating ([5]; postemergence, 0-100 scale)
50: Plant response rating, Johnsongrass [11, 15] | Johnsongrass plant response rating ([11]; Preemergence, scale 0 to 100)
75: Goosegrass plant response rating ([4]; Preemergence, scale 0 to 100)
98: Plant response rating, Crabgrass, Large [1, 15] | Plant response rating, Ryegrass, Italian [2, 13] | Plant response rating, Ryegrass, Italian [2, 16] | Plant response rating, Goosegrass [4, 16]
